US20210220291A1, “THERAPEUTIC COMPOSITIONS AND METHODS FOR PULMONARY FIBROSIS” (priority 2020, published 2021)

Experiments:
Assay type in all cases: in vivo, wistar rats
Collagen-I = experiment: Bleomycin induced lung fibrosis in rats: collagen 1 levels; conditions: iso-garcinol 10 mg/kg p.o., octahydrocurcumin 150 mg/kg, alone and combined; normal control 64.25 ± 4.98, fibrosis control 102.43 ± 3.70
Protocol: (§1) After overnight fasting, the wistar rats were anesthetized (60 mg/kg ketamine HCl and 5 mg/kg xylazine) and a midline incision was made in the neck and the trachea was exposed. A tracheal cannula was inserted under direct visualization into the trachea. Pulmonary fibrosis was induced by intratracheal administration of single dose 0.1 mL of bleomycin (5 mg/kg in 0.9% NaCl). Treatment with the test material was given 5 min after administration of bleomycin for 14 consecutive days. After 14 days, BALF (bronchoalveolar lavage fluid) was obtained. Lung tissue was weighed to determine the lung index. Lung homogenate was stored at −80° C. for analysis of bio-markers. […]
(§2) The lung of the animals was removed and rinsed with ice-cold isotonic saline. […] The levels of HIF-1 alpha, TGF-β, IL-13, IL-1β, TNF-α, CCL-17, osteopontin and mucin in the lung tissue homogenate was determined using methods and protocols already reported in scientific literature.

IL-1β = experiment: Bleomycin induced lung fibrosis in rats: IL-1β in lung tissue homogenate; conditions: iso-garcinol 10 mg/kg, octahydrocurcumin 150 mg/kg bodyweight, individually and in combination, vs pulmonary fibrosis control (FIG. 5)
Protocol: as §1, §2

IL-13 = experiment: Bleomycin induced lung fibrosis in rats: IL-13 in lung tissue homogenate; conditions: iso-garcinol 10 mg/kg, octahydrocurcumin 150 mg/kg bodyweight, individually and in combination, vs pulmonary fibrosis control (FIG. 4)
Protocol: as §1, §2

HIF-1α = experiment: Bleomycin induced lung fibrosis in rats: HIF-1 alpha in lung tissue homogenate; conditions: 14 days; for reduction in HIF-α levels: compared to pulmonary fibrosis control group (138.6 pg/ml); for reduction in HIF-α levels / HIF-α levels: iso-garcinol 10 mg/kg, octahydrocurcumin 150 mg/kg bodyweight, individually and in combination; for HIF-α levels: control group 138.6 pg/ml
Protocol: (§3) After overnight fasting, the wistar rats were anesthetized (60 mg/kg ketamine HCl and 5 mg/kg xylazine) and a midline incision was made in the neck and the trachea was exposed. A tracheal cannula was inserted under direct visualization into the trachea. Pulmonary fibrosis was induced by intratracheal administration of single dose 0.1 mL of bleomycin (5 mg/kg in 0.9% NaCl). Treatment with the test material was given 5 min after administration of bleomycin for 14 consecutive days. After 14 days, BALF (bronchoalveolar lavage fluid) was obtained. Lung tissue was weighed to determine the lung index. Lung homogenate was stored at −80° C. for analysis of bio-markers. (Yildirim A, Ersoy Y, Ercan F et al., “Phosphodiesterase-5 inhibition by sildenafil citrate in a rat model of bleomycin-induced lung fibrosis,” Pulmonary Pharmacol Therap. […]; 23(3):215-221; Chen L, Wang T, Wang X et al., “Blockade of advanced glycation end product formation attenuates bleomycin-induced pulmonary fibrosis in rats,” Respiratory Res. 2009; 10:55; Nergiz et al., The Protective Effect of Naringin against Bleomycin-Induced Pulmonary Fibrosis in Wistar Rats. Pulmonary Med. 2016, 12 p, http://dx.doi.org/10.1155/2016/7601393)
(§4) The lung of the animals was removed and rinsed with ice-cold isotonic saline. To the tissues was added 4 ml/g tissue of extraction buffer containing 1 mM phenylmethylsulfonyl fluoride, 1 mg/ml aprotinin and 0.05% Tween 20 in phosphate buffered saline. Tissues were homogenized on ice with a polytron and the homogenate was centrifuged at 5000 g for 15 min. Aliquots of the supernatant were separated and used for biochemical analysis. Supernatants were stored at −80° C. until cytokine analysis (Pandey et al., Multifunctional neuroprotective effect of Withanone, a compound from Withania somnifera roots in alleviating cognitive dysfunction. Cytokine 102 (2018) 211-221). The levels of HIF-1 alpha, TGF-β, IL-13, IL-1β, TNF-α, CCL-17, osteopontin and mucin in the lung tissue homogenate was determined using methods and protocols already reported in scientific literature.
Different concentration of iso-garcinol (5, 10, 20 mg/kg bodyweight) and octahydrocurcumin were first administered to rats and the effect of the compounds in reducing hypoxia related HIF-α was evaluated. […] Thus, iso-garcinol at 10 mg/kg bodyweight and octahydrocurcumin at 150 mg/kg bodyweight was used for the further combination studies.

TNF-α = experiment: Bleomycin induced lung fibrosis in rats: TNF-α in lung tissue homogenate; conditions: iso-garcinol 10 mg/kg, octahydrocurcumin 150 mg/kg bodyweight, individually and in combination, vs pulmonary fibrosis control (FIG. 5)
Protocol: as §1, §2

[1] = Bleomycin induced lung fibrosis in rats: lung index; conditions: (weight of the lung/bodyweight)×100; iso-garcinol 10 mg/kg p.o., octahydrocurcumin 150 mg/kg, alone and combined; normal control 0.75 ± 0.053, fibrosis control 1.39 ± 0.034
Protocol: as §3
Lung index calculated using the below formula
Lung Index=(weight of the lung/bodyweight)×100

CCL-17 = experiment: Bleomycin induced lung fibrosis in rats: CCL-17 in lung tissue homogenate; conditions: iso-garcinol 10 mg/kg, octahydrocurcumin 150 mg/kg bodyweight, individually and in combination, vs pulmonary fibrosis control (FIG. 6)
Protocol: as §1, §2

TGF-β = experiment: Bleomycin induced lung fibrosis in rats: TGF-β in lung tissue homogenate; conditions: iso-garcinol 10 mg/kg, octahydrocurcumin 150 mg/kg bodyweight, individually and in combination, 14 days; for reduction in TGF-β levels: compared to pulmonary fibrosis control group (1721 pg/ml); for TGF-β levels: control group 1721 pg/ml
Protocol: as §3, §4

MUC 5B = experiment: Bleomycin induced lung fibrosis in rats: mucin 5B in lung tissue homogenate; conditions: iso-garcinol 10 mg/kg, octahydrocurcumin 150 mg/kg bodyweight, individually and in combination, vs pulmonary fibrosis control (FIG. 8)
Protocol: as §1, §2

osteopontin = experiment: Bleomycin induced lung fibrosis in rats: osteopontin in lung tissue homogenate; conditions: iso-garcinol 10 mg/kg, octahydrocurcumin 150 mg/kg bodyweight, individually and in combination, vs pulmonary fibrosis control (FIG. 7)
Protocol: as §1, §2

## CC(C)=CC[C@H]1C[C@@]23C[C@@H](CC=C(C)C)C(C)(C)[C@@](CC=C(C)C)(C(=O)C(C(=O)c4ccc(O)c(O)c4)=C2OC1(C)C)C3=O [iso-garcinol]
Collagen-I
  Collagen-I: 89.68 ± 3.23 µg/mL
IL-1β
  IL-1β levels: significantly reduced
IL-13
  IL-13 levels: significantly reduced
HIF-1α; bleomycin rats, iso-garcinol 5, 10, 20 mg/kg bodyweight and different doses of octahydrocurcumin (FIG. 1)
  reduction of hypoxia related HIF-α (determination of effective dose): better reduction of HIF-α at 10 mg/kg bodyweight
HIF-1α
  reduction in HIF-α levels: 55%
  HIF-α levels: 61.9 pg/mL
TNF-α
  TNF-α levels: significantly reduced
[1]
  Lung index: 1.19 ± 0.035
CCL-17
  CCL-17 levels: reduced
TGF-β
  reduction in TGF-β levels: 42.62%
  TGF-β levels: 987.5 pg/mL
MUC 5B
  MUC 5B levels: reduced
osteopontin
  osteopontin levels: reduced

## COc1cc(CCC(O)CC(O)CCc2ccc(O)c(OC)c2)ccc1O (stereo not shown) [octahydrocurcumin]
Collagen-I
  Collagen-I: 95.56 ± 4.90 µg/mL
HIF-1α
  reduction in HIF-α levels: 36.6%
  HIF-α levels: 83.7 pg/mL
[1]
  Lung index: 1.02 ± 0.045
TGF-β
  reduction in TGF-β levels: 28.62%
  TGF-β levels: 1228.4 pg/mL
